Data reported in PMC9135303, “Interaction of fungal lipase with potential phytotherapeutics” (PLoS ONE, 2022).
pKd: −log10 of the molar value. Where two headings read alike, the source gives them in different places.

Assays:
lipase = target: T1, lipase; experiment: Intrinsic Trp fluorescence quenching of A. niger lipase (excitation 280 nm, ligand 50-400 uM, inner-filter corrected), 10 mM phosphate pH 7.4, samples incubated at 298 K for about 24 h; Ka from double-logarithmic plot.; format: binding
T1 construct: commercial (Sigma-Aldrich), dialyzed
Procedure: (§1) Lipase and HSA were dialyzed against KCl- buffer (pH 7) for 24 hrs. Stock solution of lipase was prepared in 10 mM phosphate buffer at pH 7.4 to obtain a particular concentration. […] These samples were incubated at 298.0 K for about 24 hrs.
(§2) Fluorescence spectra were recorded on Hitachi F-4010 spectrofluorometer equipped with circulating water bath to maintain the temperature of the cell. The quartz cell of path length 1.0 cm and band slit of 5.0 nm were used for all experiments. The excitation wavelength was 280 nm for lipase and HSA. Emission spectra were recorded from 300–450 nm for lipase and HSA protein.
(§3) Herein, the fluorescence intensities were corrected for absorption of the exciting light and reabsorption of the emitted light to decrease the inner filter effect according to the following equation [10] (Chi & Liu, 2011): Fcorr=Fobs10^Aex+Aem/2, Where Fcorr and Fobs are corrected and experimentally measured fluorescence intensities, respectively. […] The fluorescence intensity utilized in this paper was the corrected intensity.
Emission fluorescence spectra were measured in the 300–450 nm interval, at a fixed excitation wavelength of 280 nm. Occurrence of an emission maximum at 344 nm in the fluorescence spectrum of lipase can be attributed to the presence of tryptophan residue of lipase. Even though the intrinsic fluorescence of pancreatic lipase is attributed to three amino acid residues, phenylalanine (Phe), tyrosine (Tyr), and tryptophan (Trp), the fluorescence of Phe and Tyr residues at this wavelength is negligible, so intrinsic fluorescence of the fungal enzyme is mainly due to Trp. […] Several earlier reports have shown similar fluorescence quenching of protein upon interaction with various drug molecules, without any shift in the emission maximum. The observed quenching in the protein fluorescence can be induced by a variety of molecular interactions such as rearrangement of molecules, ground-state complex formation, excited-state reactions, energy transfer and collisional quenching. […]

Aspergillus niger lipase [1] = experiment: Lipase inhibition assay with pNPP substrate; format: biochemical; details: for inhibition of lipase activity (in words): 0.5 mmoles/litre to 1.5 mmoles/litre, pNPP as substrate; for inhibition of lipase: 1.5 mmol/litre, para-nitrophenyl palmitate (pNPP) substrate, 37°C; for lipase activity: at about 1.5mmoles/litre
Procedure: Lipase assays were performed in a 96-well, clear, flat-bottomed plate with 200 μl reaction volume. pNPP was used as a substrate with a reaction buffer of 50 mM sodium phosphate, 5 mM sodium taurocholate, and 10% isopropanol at pH 8.0 [8, 9]. Lipase assays was performed in 200 μl reaction volume and substrate conversion was monitored with a Multiskan Go spectrophotometer (Thermo Scientific) at 410 nm. All assays were run at 37°C and reported results are the average of three replicates that were blank subtracted. The Lipase inhibitory activity was expressed as percentage inhibition calculated as: % Inhibition = [(Acontrol − Atest sample)/[…]]*100.
Significant inhibition was obtained at 0.5 mmoles/litre. For all three molecules indicating structural changes begin well below this concentration. According to all binding experiments have been performed in concentration range at 50 μM to 400 μM.

Aspergillus niger lipase [2] = experiment: Fluorescence quenching of lipase (Stern-Volmer and double-logarithmic plots); format: binding; details: for binding affinity with Aspergillus niger lipase (order of magnitude): conclusion, unit not given; for ksv (Stern-Volmer constant): pH 7.4, ligand 50-400 μM; for kq (quenching rate constant): pH 7.4, τ0 10^-9 s
Procedure: as §1, §2, §3
Emission fluorescence spectra were measured in the 300–450 nm interval, at a fixed excitation wavelength of 280 nm. Occurrence of an emission maximum at 344 nm in the fluorescence spectrum of lipase can be attributed to the presence of tryptophan residue of lipase. Even though the intrinsic fluorescence of pancreatic lipase is attributed to three amino acid residues, phenylalanine (Phe), tyrosine (Tyr), and tryptophan (Trp), the fluorescence of Phe and Tyr residues at this wavelength is negligible, so intrinsic fluorescence of the fungal enzyme is mainly due to Trp. […] Several earlier reports have shown similar fluorescence quenching of protein upon interaction with various drug molecules, without any shift in the emission maximum. The observed quenching in the protein fluorescence can be induced by a variety of molecular interactions such as rearrangement of molecules, ground-state complex formation, excited-state reactions, energy transfer and collisional quenching.
In order to gain insight into quenching mechanism involved in linalool-lipase, carvacrol- lipase and thymol- lipase interaction, or to gain further insight into the mechanism of tertiary structure we analysed the fluorescence quenching data using Stern–Volmer equation. […] S1A–S1C Fig and Table 1. gives ksv and kq values of Lipase—lin as 1.73 x 10^4 M^-1 and 1.73 x 10^13 M^-1s^-1, Lipase—car as 2.17 x 10^3 and 2.17 x 10^12, Lipase—thy as 1.76 x 10^4 and 1.76 x 10^13 respectively. […] Binding constant and number of binding sites were determined by plotting log (F0—F)/F versus log [ligand] according to equation: Log[(F0–F)/F=logKa+nlogligand] where Ka and n are binding constants and stoichiometry of association process respectively. Linear relationship is obtained from log(F− F0) / F versus log[ligand].

[3] = target: T2, Human Serum Albumin (HSA) (Homo sapiens, UniProt P02768); experiment: Fluorescence quenching of HSA (Stern-Volmer and double-logarithmic plots); format: binding; details: for blue shift in the emission maximum of HSA: excitation 280nm, from 342 nm, throughout the titration
T2 construct: purchased Sigma-Aldrich
Procedure: as §1, §2, §3
(§4) The HSA were excited at 280nm and spectra were taken from 300nm to […].
The plot of F0/F against [linalool] at 298K is given as S3A Fig. The values of ksv and kq could be calculated from the slope of curves. The average lifetime of the fluorophore in the absence of the ligand as 6.38 × 10^−9 s for HSA [23]. […] Ka and ‘n’ were calculated from equation: Log[(F0–F)/F] = logKa + n log[linalool].

HSA [4] = target: T3, HSA (Homo sapiens, UniProt P02768); experiment: UV-Vis absorption spectroscopy of HSA; format: binding; set-up: purchased Sigma-Aldrich; details: HSA 0.4mg/ml, shifted from 278 nm, 298.15 K, pH 7.4
Description: UV-visible absorbance spectra were obtained using JASCO, V-560 spectrophotometer in the wavelength range 240 to 340 nm. The baseline was corrected for each spectrum.

[5] = target: T2, Human Serum Albumin (HSA); experiment: Far-UV circular dichroism of HSA; details: 24 hours at 298.15 K, pH 7.4, native -17.76
Procedure: CD spectra were obtained over wavelength range of 200–250 nm on Jasco-1500 CD Spectrometer equipped with peltier type temperature controller. 0.1cm quartz cell were used to measure far UV CD spectrum. The concentration of protein used was 0.2 mg/ml (lipase) and 0.35 mg/ml (HSA). Each spectrum was scanned thrice and finally average of 3 was used to analyse the results.

HSA [6] = target: T3, HSA; experiment: Intrinsic Trp214 fluorescence quenching of HSA (excitation 280 nm, ligand 50-400 uM, inner-filter corrected), 10 mM phosphate pH 7.4, 298 K; Ka from double-logarithmic plot.; format: binding; set-up: gene ALB; commercial (Sigma-Aldrich), dialyzed; details: read-out: Ka(M^-1) (converted)
Procedure: as §1, §2, §3, §4
The plot of F0/F against [linalool] at 298K is given as S3A Fig. The values of ksv and kq could be calculated from the slope of curves. […] Ka and ‘n’ were calculated from equation: Log[(F0–F)/F] = logKa + n log[linalool].

T3 sequence (P02768 25-609): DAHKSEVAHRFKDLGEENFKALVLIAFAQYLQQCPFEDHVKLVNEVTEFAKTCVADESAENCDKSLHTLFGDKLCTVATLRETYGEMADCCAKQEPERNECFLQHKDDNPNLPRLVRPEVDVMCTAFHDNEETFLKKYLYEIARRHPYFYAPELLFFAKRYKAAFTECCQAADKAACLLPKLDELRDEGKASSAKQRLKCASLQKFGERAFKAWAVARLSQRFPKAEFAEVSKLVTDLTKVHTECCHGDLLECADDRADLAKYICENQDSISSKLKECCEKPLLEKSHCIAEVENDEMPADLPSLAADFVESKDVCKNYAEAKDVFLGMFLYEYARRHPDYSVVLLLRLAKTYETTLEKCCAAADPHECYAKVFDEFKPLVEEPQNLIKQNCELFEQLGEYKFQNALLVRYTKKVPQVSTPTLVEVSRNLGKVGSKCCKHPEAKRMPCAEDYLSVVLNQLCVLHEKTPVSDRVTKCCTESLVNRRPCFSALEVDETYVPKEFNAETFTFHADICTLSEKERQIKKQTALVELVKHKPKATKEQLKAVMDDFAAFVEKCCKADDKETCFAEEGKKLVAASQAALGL
T2 sequence (P02768 25-609): as above

SMILES | Ka (lipase) | inhibition of lipase activity (in words) (Aspergillus niger lipase [1]) | inhibition of lipase (Aspergillus niger lipase [1]) | lipase activity (Aspergillus niger lipase [1]) | strength of binding to lipase (in words) (Aspergillus niger lipase [2]) | binding affinity with Aspergillus niger lipase (order of magnitude) (Aspergillus niger lipase [2]) | ksv (Stern-Volmer constant) (Aspergillus niger lipase [2]; lipase) | kq (quenching rate constant) (Aspergillus niger lipase [2]; lipase) | maximum absorption peak position of ligand-HSA complex (HSA [4]) | MRE x 10^3 at 222nm (complex_400 μM) [5] | Kd (HSA [6]) | pKd [3] | n (number of binding site) ([3]; HSA) | kq (quenching rate constant) ([3]; HSA, 298K) | ksv (Stern-Volmer quenching constant) ([3]; HSA, 298K, ligand 50-400 μM) | blue shift in the emission maximum of HSA [3] | other results
Cc1ccc(C(C)C)c(O)c1 [thymol] | 2.6e+09 M⁻¹ | markedly inhibited lipase activity | approximately 50% | approximately 50% | strong binders | ~10^9 | 17600 M⁻¹ | 1.76e+13 M⁻¹ s⁻¹ | 278.4 nm | – | – | – | – | – | – | – | kq (quenching rate constant) [3]: 3.21e+13 M⁻¹ s⁻¹; ksv (Stern-Volmer quenching constant) [3]: 32100 M⁻¹
C=CC(C)(O)CCC=C(C)C (stereo not shown) [linalool] | 5300 M⁻¹ | markedly inhibited lipase activity | approximately 50% | approximately 50% | weak binder | ~10^3 | 17300 M⁻¹ | 1.73e+13 M⁻¹ s⁻¹ | 278.5 nm | -23.13 | 29.4 µM | ~4.00 | 1.36 | 3.32e+12 M⁻¹ s⁻¹ | 3320 M⁻¹ | 2 nm | association constant / binding affinity with HSA (order of magnitude) ([3]; unit inferred): ~10000 M⁻¹
Cc1ccc(C(C)C)cc1O [carvacrol] | 4.6e+07 M⁻¹ | markedly inhibited lipase activity | approximately 50% | approximately 50% | strong binders | ~10^7 | 2170 M⁻¹ | 2.17e+12 M⁻¹ s⁻¹ | 278.2 nm | -24.91 | 45.5 µM | ~4.00 | 1.29 | 2.33e+12 M⁻¹ s⁻¹ | 2330 M⁻¹ | 1 nm | Ka (binding constant) (Aspergillus niger lipase [2]; lipase, pH 7.4, double-logarithmic plot): 4.66e+07 M⁻¹; Ka (binding constant) ([3]; HSA, double-logarithmic plot): 22000 M⁻¹
